The record followed here is US9718828B2 (MERCK SHARP & DOHME CORP., priority 2011, dated 2017).

One may read the IC50 as the concentration at which inhibition is half-maximal.

hBTK (full-length BTK, 6HIS-tag cleaved), sequence (Q06187 whole entry): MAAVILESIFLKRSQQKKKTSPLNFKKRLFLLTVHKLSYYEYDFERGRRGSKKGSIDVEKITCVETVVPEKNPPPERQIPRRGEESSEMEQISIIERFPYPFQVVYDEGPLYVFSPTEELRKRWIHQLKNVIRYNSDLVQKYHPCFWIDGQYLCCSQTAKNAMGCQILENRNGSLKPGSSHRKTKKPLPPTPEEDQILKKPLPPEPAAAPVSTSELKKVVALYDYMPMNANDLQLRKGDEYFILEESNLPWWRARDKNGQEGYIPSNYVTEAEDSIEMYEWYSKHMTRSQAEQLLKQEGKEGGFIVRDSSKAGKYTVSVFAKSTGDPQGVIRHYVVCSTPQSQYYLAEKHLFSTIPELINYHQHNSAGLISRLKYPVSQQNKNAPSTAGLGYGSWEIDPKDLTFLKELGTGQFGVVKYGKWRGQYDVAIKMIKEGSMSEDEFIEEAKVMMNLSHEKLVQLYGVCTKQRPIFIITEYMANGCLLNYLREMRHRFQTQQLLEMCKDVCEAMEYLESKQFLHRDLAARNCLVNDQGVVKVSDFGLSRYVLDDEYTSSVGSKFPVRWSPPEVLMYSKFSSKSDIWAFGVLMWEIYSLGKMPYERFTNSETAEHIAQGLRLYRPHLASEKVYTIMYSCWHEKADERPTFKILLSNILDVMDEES

The first test concerns the target hBTK (full-length BTK, 6HIS-tag cleaved) (Homo sapiens (Human), UniProt Q06187). The test can be described thus: BTK enzymatic activity, IMAP-FP assay (Assay Method B). The format is biochemical. The settings on record: IMAP-FP, 1.05 nM hBTK, 5 μM ATP; class 100-1000 is given as ≧100 nM-<1 μM; read-out: IC50 Btk activity values - Assay Method B. On the procedure:
BTK enzymatic activity was determined in an IMAP-FP assay (Immobilized Metal ion Affinity-based fluorescence Polarization; Molecular Devices). […] Phosphorylation reactions were allowed to proceed for 120 minutes and were immediately quenched by the addition of 40 μL IMAP detection beads resuspended in IMAP progressive binding buffer (beads were diluted 1:600 in 75% and 25% progressive binding buffer A and B, respectively; Molecular Devices). Plates were read on Packard microplate reader after 60 minutes binding equilibration using Fluorescence Polarization protocol.
Turning to `C[C@H]1CC[C@@H](c2nc(-c3ccc(C(=O)Nc4ccccn4)cc3)c3c(N)nccn23)CN1C(=O)C1CC1` (stereo in doubt) [Example 394, 4-{8-amino-3-[(3R,6S)-1-(cyclopropylcarbonyl)-6-methylpiperidin-3-yl]imidazo[1,5-a]pyrazin-1-yl}-N-pyridin-2-ylbenzamide], the IC50 is below 10 nM.

`C[C@@H]1CC[C@@H](c2nc(-c3ccc(C(=O)Nc4cc(C(F)(F)F)ccn4)cc3)c3c(N)nccn23)CN1C(=O)C1(C)COC1` [Example 405, 4-(8-amino-3-{(3R,6R)-6-methyl-1-[(3-methyloxetan-3-yl)carbonyl]piperidin-3-yl}imidazo[1,5-a]pyrazin-1-yl)-N-[4-(trifluoromethyl)pyridin-2-yl]benzamide]: the concentration for half-maximal inhibition (IC50) fell in the range of 100 to 1000 nM.

Regarding `CN1CCO[C@@H](c2nc(-c3ccc(C(=O)Nc4cc(C(F)(F)F)ccn4)cc3)c3c(N)nccn23)C1` [Example 497, 4-{8-amino-3-[(2R)-4-methylmorpholin-2-yl]imidazo[1,5-a]pyrazin-1-yl}-N-[4-(trifluoromethyl)pyridin-2-yl]benzamide], the IC50 was in the range of 10 to 100 nM.

Regarding `Nc1ncc(F)n2c([C@@H]3CCCN(C(=O)C4CC4)C3)nc(-c3ccc(C(=O)Nc4cc(C(F)(F)F)ccn4)cc3)c12` [Example 463, 4-{8-amino-3-[(3R)-1-(cyclopropylcarbonyl)piperidin-3-yl]-5-fluoroimidazo[1,5-a]pyrazin-1-yl}-N-[4-(trifluoromethyl)pyridin-2-yl]benzamide], the IC50 is below 10 nM.

Turning to `CC1(C(=O)N2CCC[C@@H](n3cc(-c4ccc(C(=O)Nc5cc(C(F)(F)F)ccn5)cc4)c4c(N)ncnc43)C2)COC1` [Example 389, 4-(4-amino-7-{(3R)-1-[(3-methyloxetan-3-yl)carbonyl]piperidin-3-yl}-7H-pyrrolo[2,3-d]pyrimidin-5-yl)-N-[4-(trifluoromethyl)pyridin-2-yl]benzamide], the IC50 is below 10 nM.

Consider `COCCC(=O)N1CCC[C@@H](c2nc(-c3ccc(C(=O)Nc4ccccn4)cc3O)c3c(N)nccn23)C1` [Example 475, 4-{8-amino-3-[(3R)-1-(3-methoxypropanoyl)piperidin-3-yl]imidazo[1,5-a]pyrazin-1-yl}-3-hydroxy-N-pyridin-2-ylbenzamide], for which the IC50 was in the range of 10 to 100 nM.

Turning to `C[C@H]1CC[C@H](c2nc(-c3ccc(C(=O)Nc4cc(C(F)(F)F)ccn4)cc3)c3c(N)nccn23)CN1C(=O)C1(C)COC1` [Example 407, 4-(8-amino-3-{(3S,6S)-6-methyl-1-[(3-methyloxetan-3-yl)carbonyl]piperidin-3-yl}imidazo[1,5-a]pyrazin-1-yl)-N-[4-(trifluoromethyl)pyridin-2-yl]benzamide], the IC50 fell in the range of 10 to 100 nM.

In the case of `CCN1CCO[C@@H](c2nc(-c3ccc(C(=O)Nc4cc(C(F)(F)F)ccn4)cc3)c3c(N)nccn23)C1` [Example 496, 4-{8-amino-3-[(2R)-4-ethylmorpholin-2-yl]imidazo[1,5-a]pyrazin-1-yl}-N-[4-(trifluoromethyl)pyridin-2-yl]benzamide], the concentration for half-maximal inhibition (IC50) was 10 to 100 nM.

Turning to `Cn1cc(CN2CCO[C@@H](c3nc(-c4ccc(C(=O)Nc5cc(C6CC6)ccn5)cc4)c4c(N)nccn34)C2)cn1` [Example 498, 4-(8-amino-3-{(2R)-4-[(1-methyl-1H-pyrazol-4-yl)methyl]morpholin-2-yl}imidazo[1,5-a]pyrazin-1-yl)-N-(4-cyclopropylpyridin-2-yl)benzamide], the IC50 is 10 to 100 nM.

For `Nc1ncc(Br)n2c([C@@H]3CCCN(C(=O)C4CC4)C3)nc(-c3ccc(C(=O)Nc4cc(C(F)(F)F)ccn4)cc3)c12` [Example 577, (R)-4-(8-amino-5-bromo-3-(1-(cyclopropanecarbonyl)piperidin-3-yl)imidazo[1,5-a]pyrazin-1-yl)-N-(4-(trifluoromethyl)pyridin-2-yl)benzamide], the IC50 was below 10 nM.

Take `Cn1cc(CN2CCS(=O)(=O)C(c3nc(-c4ccc(C(=O)Nc5cc(C(F)(F)F)ccn5)cc4)c4c(N)nccn34)C2)cn1` (stereo not shown) [Example 569, 4-(8-amino-3-{4-[(1-methyl-1H-pyrazol-4-yl)methyl]-1,1-dioxidothiomorpholin-2-yl}imidazo[1,5-a]pyrazin-1-yl)-N-[4-(trifluoromethyl)pyridin-2-yl]benzamide]: the half-maximal inhibitory concentration (IC50) fell in the range of 100 to 1000 nM.

In the case of `Cc1cc(C(=O)Nc2cc(C(F)(F)F)ccn2)ccc1-c1nc([C@@H]2CCCN(C(=O)C3(C)COC3)C2)n2ccnc(N)c12` [Example 479, 4-(8-amino-3-{(3R)-1-[(3-methyloxetan-3-yl)carbonyl]piperidin-3-yl}imidazo[1,5-a]pyrazin-1-yl)-3-methyl-N-[4-(trifluoromethyl)pyridin-2-yl]benzamide], the IC50 was 10 to 100 nM.

Consider `Cn1cc(CN2CCO[C@@H](c3nc(-c4ccc(C(=O)Nc5cc(C(F)(F)F)ccn5)cc4)c4c(N)nccn34)C2)cn1` [Example 495, 4-(8-amino-3-{(2R)-4-[(1-methyl-1H-pyrazol-4-yl)methyl]morpholin-2-yl}imidazo[1,5-a]pyrazin-1-yl)-N-[4-(trifluoromethyl)pyridin-2-yl]benzamide], for which the IC50 is 10 to 100 nM.

Regarding `CN1CCS(=O)(=O)C(c2nc(-c3ccc(C(=O)Nc4cc(C(F)(F)F)ccn4)cc3)c3c(N)nccn23)C1` (stereo not shown) [Example 570, 4-[8-amino-3-(4-methyl-1,1-dioxidothiomorpholin-2-yl)imidazo[1,5-a]pyrazin-1-yl]-N-[4-(trifluoromethyl)pyridin-2-yl]benzamide], the IC50 fell in the range of 100 to 1000 nM.

As for `C[C@H]1[C@H](c2nc(-c3ccc(C(=O)Nc4cc(C(F)(F)F)ccn4)cc3)c3c(N)nccn23)CCCN1C(=O)C1(C)COC1` [Example 380, 4-(8-amino-3-{(2S,3R)-2-methyl-1-[(3-methyloxetan-3-yl)carbonyl]piperidin-3-yl}imidazo[1,5-a]pyrazin-1-yl)-N-[4-(trifluoromethyl)pyridin-2-yl]benzamide], the IC50 is 10 to 100 nM.

In the case of `C[C@@H]1[C@H](c2nc(-c3ccc(C(=O)Nc4cc(C(F)(F)F)ccn4)cc3)c3c(N)nccn23)CCCN1C(=O)C1(C)COC1` [Example 379, 4-(8-amino-3-{(2R,3R)-2-methyl-1-[(3-methyloxetan-3-yl)carbonyl]piperidin-3-yl}imidazo[1,5-a]pyrazin-1-yl)-N-[4-(trifluoromethyl)pyridin-2-yl]benzamide], the IC50 was below 10 nM.

For the molecule `Cn1cc(CN2CCN[C@@H](c3nc(-c4ccc(C(=O)Nc5cc(C(F)(F)F)ccn5)cc4)c4c(N)nccn34)C2)cn1` [Example 566, 4-(8-amino-3-{(2R)-4-[(1-methyl-1H-pyrazol-4-yl)methyl]piperazin-2-yl}imidazo[1,5-a]pyrazin-1-yl)-N-[4-(trifluoromethyl)pyridin-2-yl]benzamide], the IC50 was in the range of 100 to 1000 nM.

Regarding `CC1(C(=O)N2C[C@H](c3nc(-c4ccc(C(=O)Nc5cc(C(F)(F)F)ccn5)cc4)c4c(N)nccn34)CC(F)(F)C2)COC1` (stereo in doubt) [Example 376, 4-(8-amino-3-{5,5-difluoro-1-[(3-methyloxetan-3-yl)carbonyl]piperidin-3-yl}imidazo[1,5-a]pyrazin-1-yl)-N-[4-(trifluoromethyl)pyridin-2-yl]benzamide], the IC50 was below 10 nM.

The test is the same for the next values; noted with them: IMAP-FP, 1.05 nM hBTK, 5 μM ATP; read-out: IC50 Btk activity values - Assay Method B.
In the case of `CC1(C(=O)N2CCN[C@@H](c3nc(-c4ccc(C(=O)Nc5cc(C(F)(F)F)ccn5)cc4)c4c(N)nccn34)C2)CC1` [Example 567, 4-(8-amino-3-{(2R)-4-[(1-methylcyclopropyl)carbonyl]piperazin-2-yl}imidazo[1,5-a]pyrazin-1-yl)-N-[4-(trifluoromethyl)pyridin-2-yl]benzamide], the IC50 was at least 1000 nM.
